This is an account of results in PubChem BioAssay AID179 (DTP/NCI, 2004).

Values joined by “and” are separate entries in the source; they are usually repeats but may differ in a detail not shown here. Identical values can stand only once. Active and inactive are the calls of the source.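 How the source made its calls: active means compounds giving half or more protection of infected cells from virus-caused growth loss, again on retest; inactive means the rest.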

The EC50 is the concentration needed to bring the measured effect to its halfway point. Broadly, the IC50 is the concentration that inhibits the measured activity by half.

The test system of the experiment is CEM cells HIV-1 protection, formazan growth assay. The experiment can be described thus: NCI AIDS Antiviral Assay. Particulars: for IC50: measured here: growth of uninfected CEM cells. The method, boiled down: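 Human CEM cells, uninfected and HIV-1-infected, exposed to five drug concentrations; growth measured by soluble formazan assay and scored as percent protection from infection, with protecting compounds retested.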

Consider `COc1cc(C2=NN(C)C(c3ccc([N+](=O)[O-])o3)C2)cc(OC)c1OC` (centres undefined), for which the EC50 is more than 83.2 µM and the IC50 worked out at 32.4 µM.
`c1cc(CSP234N5CCN2CCN3CCN4CC5)cc(CSP234N5CCN2CCN3CCN4CC5)c1`: the EC50 was more than 100 µM and the IC50 came out at 25.1 µM.
As to `COC1C(=[N+]=[N-])C(=O)NC(=O)N1C1OC(COC(c2ccccc2)(c2ccccc2)c2ccccc2)C(O)C1O` (centres undefined), the EC50 was more than 18.2 µM and the IC50 was more than 18.2 µM.
Consider `O=C(Nc1ccccc1CCl)Nc1ccccc1CCl` (tested in a mixture with another compound), for which the EC50 was more than 200 µM and the concentration for half-maximal inhibition (IC50) came to 41.7 µM.
On to `O=C(NNc1nc2ccccc2n2cccc12)Nc1ccc(Br)cn1`, for which the EC50 was more than 200 µM and the IC50 was determined as 46.8 µM.
In the case of `N#CCC(=O)NCCc1c[nH]c2ccccc12`, the EC50 was more than 200 µM and the IC50 was more than 200 µM.
Regarding `CCOP(=O)(OCC)C(C)(CC)NC(=O)C(C(F)(F)F)C(F)(F)F` (centres undefined), the EC50 is more than 200 µM, the result was inactive and the 50% inhibitory concentration (IC50) is 105 µM.
As to `CCCN(CCC)c1nc2ccc(NC(=O)OCC)cc2s1`, the EC50 is more than 42.7 µM and the 50% inhibitory concentration (IC50) was determined as 32.4 µM.
Regarding `N#CC(C#N)=Cc1ccccc1O`, the EC50 was more than 200 µM and the IC50 was determined as 40.7 µM.
On to `CCCCCCCCCCC(C)CCCCCCC(=O)O` (centres undefined), for which the result was inactive.
In the case of `C/C1=C\[C@H](C)C[C@H](C)OC(=O)C[C@H](c2ccc(O)cc2)NC(=O)[C@@H](Cc2c(Br)[nH]c3ccccc23)N(C)C(=O)[C@H](C)NC(=O)[C@@H](C)C1`, the EC50 was more than 2 µM and the IC50 came out at 0.0302 µM.
The like results for `CCCCNC(=S)N/N=C/c1cccc(C)n1` were, in that order, more than 200 µM and 12 µM.
As for `O=C(O)c1cc(/C=C/c2ccc(N=Nc3c(O)cc(O)cc3C(=O)O)c(C(=O)O)c2)ccc1N=Nc1c(O)cc(O)cc1C(=O)O`, the 50% effective concentration (EC50) is 16.6 µM and 3.89 µM; the half-inhibitory concentration (IC50) is > 100 µM and 95.5 µM.
As for `CNC(=O)c1n[nH]n(C2CCCCC2)c1=S`, the result was inactive.
With `Nc1ccc2c(O)cc(=O)[nH]c2n1`, the EC50 is more than 200 µM and the IC50 was more than 200 µM.
Turning to `O=[N+]([O-])C(=C1NCCN1)C(Cl)=C(Cl)Cl`, the EC50 was more than 200 µM and the 50% inhibitory concentration (IC50) was more than 200 µM.
Regarding `Cn1c2ccccc2[n+]2c(N)scc12`, the EC50 was more than 200 µM and the IC50 was found to be 39.8 µM.
The like results for `Cc1cn(C2CC(N=[N+]=[N-])C(COC(=O)C3OC(C)(C)O[C@@]34CC[C@H]3[C@@H]5CCC6=CC(=O)C=C[C@]6(C)[C@H]5[C@@H](O)C[C@@]34C)O2)c(=O)[nH]c1=O` (some centres undefined) were, in that order, 0.0589 µM and 11.5 µM.
The like results for `CCCCCCCCCCCC[N+]12CC[N+](CCN)(CC1)CC2` were, in that order, more than 251 µM and 56.2 µM.
For `OC1C2C3CCC(C3)C2C(O)C2C3CCC(C3)C12` (centres undefined), in that order: more than 200 µM and more than 200 µM.
`NC(=O)N=Nc1c2ccccc2n2[nH]ccc12`: the EC50 is more than 200 µM and the IC50 amounted to 81.3 µM.
Consider `c1ccc(SC2(Sc3ccccc3)CCCC2)cc1`, for which the result was inactive.
Turning to `CCCCc1ccc(-n2sc3ncccc3c2=O)cc1`, the EC50 is 1.74 µM and the IC50 came out at 8.32 µM.
The like results for `CC(=O)[CH-]C(=O)c1ccccc1.CC(=O)[CH-]C(=O)c1ccccc1.[CH2-]CCC.[CH2-]CCC.[Sn+4]` were, in that order, more than 46.8 µM and 0.776 µM.
For the molecule `Cc1cc(=O)[nH]c(NN2C(Cl)C(=O)C2c2cccc([N+](=O)[O-])c2)n1` (centres undefined), the EC50 is more than 53.7 µM and the IC50 came to 15.5 µM.
Consider `COc1cc2ccnc(-c3n[nH]c4cc(OC)c(OC)cc34)c2cc1OC`, for which the outcome was inactive.
Consider `CN(C)c1nc(N(C)C)nc(N(C)CN(C)c2ccc(Cl)cc2)n1`, for which the EC50 was more than 50.1 µM and the half-inhibitory concentration (IC50) is more than 50.1 µM.
In the case of `CN(C)CCNC(=O)c1cccc(N(C)C(=O)c2ccccc2)c1[N+](=O)[O-]`, the EC50 is more than 200 µM and the IC50 is more than 200 µM.
Consider `CSC1=NC=C(C#N)C2=NC(c3cccs3)NN12` (centres undefined), for which the EC50 is more than 339 µM and the 50% inhibitory concentration (IC50) amounted to 20.4 µM.
The like results for `O=c1[nH]c(=O)n(COCc2ccccc2)c2ccc([N+](=O)[O-])cc12` were, in that order, more than 200 µM and more than 200 µM.
The like results for `CC1Cc2c(nc3n(c2=O)CCCCC3)O1` (centres undefined) were, in that order, more than 407 µM and more than 407 µM.
For `CCOC(=O)c1cc(Br)c(-c2onc(C)c2Br)[nH]1`, in that order: more than 200 µM and more than 200 µM.
`C=C1SC(=Nc2c(C)cccc2C)N(c2nc(Cl)nc(Cl)n2)C12CCCCC2`: the EC50 was more than 200 µM and the IC50 turned out to be 162 µM.
The like results for `OC1COCOC1C(O)C1OCOCC1O` (centres undefined) were, in that order, more than 200 µM and more than 200 µM.
Regarding `C[C@@H](c1ccccc1)n1c(N)c(-c2ccccn2)c2ccc([N+](=O)[O-])cc2c1=O`, the EC50 is more than 200 µM and the IC50 stood at 24 µM.
Consider `CCC[CH2][Sn]1([CH2]CCC)[O]C(=O)c2ccc(C)cc2[O]1`, for which the result was inactive.
For `CO[C@H]1/C=C/O[C@@]2(C)Oc3c(C)c(O)c4c(O)c(c(/C=N/N5CCNCC5)c(O)c4c3C2=O)NC(=O)/C(C)=C\C=C\[C@H](C)[C@H](O)[C@@H](C)[C@@H](O)[C@@H](C)C(OC(C)=O)[C@@H]1C` (some centres undefined), the EC50 is more than 200 µM and the IC50 is 50.1 µM.
The like results for `O=S(=O)(O)C(I)(I)S(=O)(=O)O` were, in that order, more than 200 µM and more than 200 µM.
Turning to `Fc1ccc(/C=N\N=C(N/N=C/c2ccc(F)cc2)N/N=C/c2ccc(F)cc2)cc1`, the EC50 is more than 200 µM and the IC50 came to 19.5 µM.
On to `O=C(O)C1(C(=O)O)CC23CCC2(COC3)C1` (centres undefined), for which the result was inactive.
Regarding `N=c1ccn2c(n1)OC1C(O)C(CO)OC12` (centres undefined), the concentration for a half-maximal effect (EC50) is 37.2 µM and > 2 µM.
`Nc1c(Cl)c([N+](=O)[O-])cc2c1OCCCCO2`: the EC50 was more than 200 µM and the IC50 turned out to be 123 µM.
Take `CN(C)CCN1C(=O)C2C3CCC(C)(O3)C2C1=O` (centres undefined): the EC50 is more than 200 µM and the IC50 is more than 200 µM.
On to `O=C(O)CC[C@H](NC(=O)c1ccc(-n2nc3ccc(O)cc3nc2=O)cc1)C(=O)O`, for which the EC50 is more than 145 µM and the IC50 is more than 145 µM.
Take `O=C1Cc2c(-c3ccccc3)cc(-c3ccccc3)nc2-c2ccccc2N1`: the EC50 was more than 200 µM and the half-inhibitory concentration (IC50) turned out to be 6.17 µM.
For `Cc1cn(C2CC(N=[N+]=[N-])C(COC(=O)[C@@]3(O)CCC4C5CCC6=CC(=O)C=C[C@]6(C)C5[C@@H](O)C[C@@]43C)O2)c(=O)[nH]c1=O` (some centres undefined), in that order: 1.15 µM and 22.9 µM.
The like results for `O=c1cc2[nH]cnc2c(O)[nH]1` were, in that order, more than 89.1 µM and more than 89.1 µM.
The like results for `CCN(CC)CCS(=O)c1c2cc(OC)ccc2nc2ccc(OC)cc12` (centres undefined) were, in that order, more than 200 µM and 3.39 µM.
Turning to `C=C(NC(=O)C(=C)NC(=O)c1ccc2c(n1)-c1coc(n1)C(=C)NC(=O)C(=C)NC(=O)c1nc(oc1C)C(=C)NC(=O)C(C(C)(C)O)NC(=O)C(=C)NC(=O)c1coc(n1)/C(=C/C)NC(=O)[C@H]([C@@H](C)O)NC(=O)c1csc-2n1)C(N)=O` (some centres undefined), the EC50 was more than 100 µM and the half-maximal inhibitory concentration (IC50) is more than 100 µM.
Consider `CNc1nnnn1C1OC(CO)C(O)C1O` (centres undefined), for which the EC50 was more than 1070 µM and the IC50 is more than 1070 µM.
With `Cc1cc2c(C(C)C)c(O)c(O)c(C=Nc3ccc4ccccc4c3)c2c(O)c1-c1c(C)cc2c(C(C)C)c(O)c(O)c(C=Nc3ccc4ccccc4c3)c2c1O`, the EC50 was 10.7 µM and the IC50 came to 22.9 µM.
For the molecule `COc1ccc(-c2ccccc2)c(N/N=C2\CCCNC2=O)c1`, the result was inactive.
Take `CC(CCC(=O)O)[C@H]1CCC2[C@@H]3CC[C@@H]4CC(O)CC[C@]4(C)C3CC[C@@]21C` (some centres undefined): the EC50 is more than 200 µM and the concentration for half-maximal inhibition (IC50) was more than 100 µM.
For `C=C1N(c2nc(Cl)nc(Cl)n2)c2ccccc2C1(C)C`, in that order: more than 200 µM and 186 µM.
For `COc1cc(C(=O)NO)ccc1O`, in that order: more than 8510 µM and 447 µM.
For `COc1cc(/C=C2\N=C(c3ccccc3)OC2=O)cc(OC)c1OC`, in that order: more than 21.4 µM and more than 21.4 µM.
As to `O=C(Nc1ccccc1)NC(CSSCC(NC(=O)Nc1ccccc1)C(=O)O)C(=O)O` (centres undefined), the EC50 was more than 200 µM and the IC50 came out at 7.24 µM.
For `Nc1ccc(S(=O)(=O)N/N=C/c2ccco2)cc1`, in that order: more than 676 µM and more than 676 µM.
Take `NC(=O)C12C(=O)NC(=O)C1(C(=O)O)C21CCCC1` (centres undefined): the EC50 was more than 200 µM and the IC50 is more than 200 µM.
As to `Cc1ccc(CCC(=O)C(=O)O)s1`, the EC50 is more than 479 µM and the half-maximal inhibitory concentration (IC50) is more than 479 µM.
With `O=C(N/N=C\c1cccc(/C=N\NC(=O)Nc2ccc(N=Nc3ccccc3)cc2)n1)Nc1ccc(N=Nc2ccccc2)cc1`, the EC50 was more than 200 µM and the concentration for half-maximal inhibition (IC50) turned out to be 39.8 µM.
As to `CC(=O)NC1C(OCc2ccccc2)OC(CO)C(O)C1OC(C)C(=O)NC(C)C(=O)N[C@H](CCC(=O)OCCNCCCNc1ccc([N+](=O)[O-])c2[nH]c3ccccc3c(=O)c12)C(N)=O` (some centres undefined), the EC50 is more than 200 µM and the IC50 is 60.3 µM.
For `C=Cc1c2[n-]c(c1C)/C=c1\[n-]/c(c(C)c1C=C)=C\c1[n-]c(c(CCC(=O)O)c1C)/C=c1\[n-]/c(c(C)c1CCC(=O)O)=C\2.[Co]`, in that order: more than 74.1 µM and more than 74.1 µM.
Turning to `CC1C(C#N)(C#N)C(C#N)=C(N)C1(C)[N+](=O)[O-]` (centres undefined), the EC50 is more than 200 µM and the IC50 was found to be 27.5 µM.
For `CCOc1ccccc1NC(=O)C1=C(C)NC(C)=C(C(=O)Nc2ccccc2OCC)C1c1ccc([N+](=O)[O-])cc1`, in that order: more than 9.33 µM and more than 9.33 µM.
Take `CN(NC(=O)c1ccco1)C1=NCCCCN1`: the EC50 is more than 200 µM and the IC50 is more than 200 µM.
`O=C1/C(=C\c2ccccc2)CN(C(=O)CCN2CCCCC2)C/C1=C/c1ccccc1`: the EC50 is more than 151 µM and the half-inhibitory concentration (IC50) turned out to be 0.794 µM.
For `Cn1cnc2ccccc2c1=S`, in that order: more than 200 µM and 182 µM.
